Consider four substances from US8124580B2, “Apolipoprotein A1 mimetics and uses thereof” (Trustees of Tufts College, priority 2004, dated 2012).

The subject of data set [1] is apoE-null mice. The data set can be described thus: Atherosclerosis in apoE-null mice, oral in drinking water. The note with it: aortic root, 1.6 mg/day orally, 6 weeks; for decrease in lesion area as compared to water control: p<0.02. The class given is in vivo. The method, then:
In this study, the comparative effect of Rev-D4F, D-4F, and L-4F mimetic peptides on atherosclerosis in apoE-null mice was measured. Four groups of apoE-null mice (4 weeks old, n=15) were fed a chow diet, and administered water (control), Rev-D4F, D-4F, or L-4F mimetic peptides (1.6 mg/day, n=12/group) orally in drinking water for 6 weeks. Quantitative morphometry of aortic root cross sections stained with oil-red O was performed with NIH software.

The test system of data set [2] is LDL. The conditions noted are these: cited from earlier work; for LDL oxidation: previously shown.
Data set [3] relates to LDL-induced monocyte chemotactic activity. The conditions noted are these: previously shown; cited from earlier work.
The target in data set [4] is T1, ATP-binding cassette protein A1 (ABCA1) (Homo sapiens, UniProt O95477).
T1 construct: expressed in transfected cells
T1 sequence (O95477 whole entry, species assumed): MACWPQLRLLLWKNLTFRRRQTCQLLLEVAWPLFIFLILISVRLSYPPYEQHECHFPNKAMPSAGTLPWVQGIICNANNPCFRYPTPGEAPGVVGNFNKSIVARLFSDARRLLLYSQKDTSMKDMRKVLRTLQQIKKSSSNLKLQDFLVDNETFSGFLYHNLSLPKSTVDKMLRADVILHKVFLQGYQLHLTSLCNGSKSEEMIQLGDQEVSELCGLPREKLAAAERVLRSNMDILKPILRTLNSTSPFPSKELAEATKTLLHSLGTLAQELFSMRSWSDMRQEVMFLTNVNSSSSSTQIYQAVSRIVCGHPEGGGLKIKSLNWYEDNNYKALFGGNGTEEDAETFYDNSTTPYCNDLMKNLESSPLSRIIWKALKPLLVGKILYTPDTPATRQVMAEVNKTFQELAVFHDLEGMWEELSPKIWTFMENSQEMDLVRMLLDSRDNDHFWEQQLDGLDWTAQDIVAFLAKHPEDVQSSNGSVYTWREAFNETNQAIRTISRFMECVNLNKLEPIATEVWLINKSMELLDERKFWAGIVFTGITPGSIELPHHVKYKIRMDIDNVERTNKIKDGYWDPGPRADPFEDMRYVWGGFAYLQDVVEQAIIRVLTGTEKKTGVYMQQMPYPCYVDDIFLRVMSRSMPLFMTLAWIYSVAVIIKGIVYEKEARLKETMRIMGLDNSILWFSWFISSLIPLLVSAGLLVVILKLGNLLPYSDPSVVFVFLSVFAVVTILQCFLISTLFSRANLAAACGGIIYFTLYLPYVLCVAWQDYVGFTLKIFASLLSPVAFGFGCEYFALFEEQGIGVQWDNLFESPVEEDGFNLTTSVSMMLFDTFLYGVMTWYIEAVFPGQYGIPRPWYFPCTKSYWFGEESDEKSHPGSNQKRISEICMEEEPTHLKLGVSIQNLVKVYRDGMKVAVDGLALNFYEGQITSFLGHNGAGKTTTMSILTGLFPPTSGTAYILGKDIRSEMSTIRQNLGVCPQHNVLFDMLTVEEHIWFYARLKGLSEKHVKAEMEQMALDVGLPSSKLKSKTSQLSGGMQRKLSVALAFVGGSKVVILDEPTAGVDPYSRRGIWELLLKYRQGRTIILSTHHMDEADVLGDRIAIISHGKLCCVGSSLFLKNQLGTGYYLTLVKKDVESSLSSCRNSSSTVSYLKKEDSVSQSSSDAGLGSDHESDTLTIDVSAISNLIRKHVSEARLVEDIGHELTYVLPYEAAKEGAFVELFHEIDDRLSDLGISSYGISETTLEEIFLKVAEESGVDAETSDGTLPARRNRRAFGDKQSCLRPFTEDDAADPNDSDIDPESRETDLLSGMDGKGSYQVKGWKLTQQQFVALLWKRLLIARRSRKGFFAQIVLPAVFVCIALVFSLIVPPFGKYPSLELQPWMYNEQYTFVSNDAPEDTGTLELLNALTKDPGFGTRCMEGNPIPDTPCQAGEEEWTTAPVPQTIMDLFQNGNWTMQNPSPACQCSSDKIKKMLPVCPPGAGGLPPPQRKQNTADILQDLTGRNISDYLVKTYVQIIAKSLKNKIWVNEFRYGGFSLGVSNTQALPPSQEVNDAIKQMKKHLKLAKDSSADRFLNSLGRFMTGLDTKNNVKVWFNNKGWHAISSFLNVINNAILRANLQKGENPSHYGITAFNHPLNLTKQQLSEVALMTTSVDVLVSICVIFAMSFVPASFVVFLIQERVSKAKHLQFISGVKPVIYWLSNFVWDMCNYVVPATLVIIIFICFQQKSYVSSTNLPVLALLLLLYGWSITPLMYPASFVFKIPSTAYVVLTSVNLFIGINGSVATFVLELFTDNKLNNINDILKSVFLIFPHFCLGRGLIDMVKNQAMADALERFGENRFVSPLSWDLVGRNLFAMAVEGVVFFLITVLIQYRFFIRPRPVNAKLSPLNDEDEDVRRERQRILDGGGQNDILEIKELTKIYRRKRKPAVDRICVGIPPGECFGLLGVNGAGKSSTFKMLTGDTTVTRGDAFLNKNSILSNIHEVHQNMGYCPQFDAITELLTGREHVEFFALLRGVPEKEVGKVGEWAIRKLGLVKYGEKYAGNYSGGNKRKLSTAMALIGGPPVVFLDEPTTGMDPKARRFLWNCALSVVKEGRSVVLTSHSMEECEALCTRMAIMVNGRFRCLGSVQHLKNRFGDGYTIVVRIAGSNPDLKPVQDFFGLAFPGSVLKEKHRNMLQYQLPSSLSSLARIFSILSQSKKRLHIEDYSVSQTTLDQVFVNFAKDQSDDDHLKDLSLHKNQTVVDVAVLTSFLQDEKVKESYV
The data set can be described thus: ABCA1-dependent cholesterol efflux from ABCA1-transfected cells. The class given is cell-based. The method, then:
(§1) The effect of Rev-D4F on the cholesterol efflux in a […] was examined. Scavenger receptor class B type I (“SR-BI”) is a receptor for HDL normally expressed on the surface of the liver cells. Tritiated cholesterol was added to cells transfected with SR-BI, with wild type Apo A-I, L4F peptide, D4F peptide, or Rev-D4F peptidomimetic, and the percentage of cholesterol efflux was determined.
The effect of Rev-D4F on the cholesterol efflux in a manner dependent on ATP-binding cassette protein A1 (“ABCA1”) was also examined using the same methodology as for SR-BI, except that ABCA1 was transfected.

In data set [5] the test system is LDL receptor-null mice. The conditions noted are these: oral administration; cited from earlier work.
The conditions of data set [6]: in vivo; cited from earlier work.
Data set [7] concerns human aortic endothelial cells. The data set can be described thus: Lipid peroxidation caused by human aortic endothelial cells (TBARS). It is filed as cell-based. The conditions noted are these: FIG. 5; for lipid peroxidation (TBARS) caused by endothelial cells: human aortic endothelial cells as oxidant. The source says:
(§2) The present study measured the ability of Rev-D4F, D-4F, and L-4F mimetic peptides to inhibit lipid peroxidation caused by human aortic endothelial cells and copper(II) sulfate, based upon inhibiting an increase in concentrations of thiobarbituric acid-reactive substances (TBARS).

Data set [8] concerns lipid peroxidation caused by copper(II) sulfate. The data set can be described thus: Lipid peroxidation caused by copper(II) sulfate (TBARS). The class given is biochemical. The conditions noted are these: copper(II) sulfate as oxidant, FIG. 6.
From the text: as §2

Data set [9] has as its target T2, Scavenger receptor class B type I (SR-BI) (Homo sapiens, UniProt Q8WTV0).
T2 construct: expressed in transfected cells
T2 sequence (Q8WTV0 1-509 isoform Q8WTV0-2): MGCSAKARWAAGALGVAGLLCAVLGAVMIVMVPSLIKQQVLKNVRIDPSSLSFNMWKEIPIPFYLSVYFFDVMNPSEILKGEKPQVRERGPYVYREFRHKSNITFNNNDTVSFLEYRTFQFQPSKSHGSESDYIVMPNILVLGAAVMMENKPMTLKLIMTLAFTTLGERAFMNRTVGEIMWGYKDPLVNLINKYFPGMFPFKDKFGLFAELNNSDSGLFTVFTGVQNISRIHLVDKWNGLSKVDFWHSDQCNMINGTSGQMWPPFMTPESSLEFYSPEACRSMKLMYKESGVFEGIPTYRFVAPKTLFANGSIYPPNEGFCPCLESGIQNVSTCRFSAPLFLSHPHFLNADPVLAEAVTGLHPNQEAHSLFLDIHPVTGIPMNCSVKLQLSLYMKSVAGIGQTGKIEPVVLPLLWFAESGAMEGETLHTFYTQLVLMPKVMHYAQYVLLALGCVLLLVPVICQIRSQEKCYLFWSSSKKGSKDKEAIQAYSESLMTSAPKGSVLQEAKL
The data set can be described thus: SR-BI-dependent cholesterol efflux from SR-BI-transfected cells. It is filed as cell-based. Here is the method: as §1

The subject of data set [10] is monocyte chemotactic protein-1 (MCP-1) mRNA. The data set can be described thus: MCP-1 mRNA expression in endothelial cells. The class given is cell-based. The text has this: This study analyzed the effects of Rev-D4F, D-4F, and L-4F mimetic peptides to reduce the levels of an […] marker, monocyte chemotactic protein-1 (MCP-1). Based upon levels of MCP-1 mRNA, all three peptidomimetics reduced the amount of MCP-1.

Data set [11] can be described thus: Association with DMPC phospholipid, gel filtration chromatography. The class given is binding. The note with it: FIGS. 2A-D. The text has this:
To assess the ability of purified Rev-D4F to interact with phospholipids, the purified peptidomimetic was mixed with 1,2-dimyristoyl-sn-glycero-3-phosphocholine (DMPC), which is a component of membrane lipid bi-layer with which cholesterol is associated, and fractionated by gel filtration chromatography.

“Also recorded” adds a separate entry of the source. [ ]: non-standard residue; d: D form.

Turning to “Ac-D-W-F-K-A-F-Y-D-K-V-A-E-K-F-K-E-A-F-NH2 [D-4F] (Ac-[dD][dW][dF][dK][dA][dF][dY][dD][dK][dV][dA][dE][dK][dF][dK][dE][dA][dF]-NH2)”, in [1], the “decrease in lesion area as compared to water control” value is listed as 33%. Moreover, the LDL oxidation entry in data set [2] is “block”. In addition, the “LDL-induced monocyte chemotactic activity” value in [3] is recorded as “block”. Moreover, the “efficiency in promoting ABCA1-dependent cholesterol efflux compared to Apo A-I” value in data set [4] (per mole basis) was “less efficient”; in data set [4] (per weight basis), “more efficient”. Further, the “reduction of atherosclerotic lesions” value in [5] is ~80%. Besides, in data set [6], the “stability upon oral administration” value is given as “stable”. For the same substance, the “lipid peroxidation (TBARS) caused by endothelial cells” value in data set [7] is recorded as “significantly decreased; also recorded: inhibit”. The “lipid peroxidation (TBARS) caused by copper sulfate” value in data set [8] is “significantly decreased; also recorded: inhibit”. In addition, the “efficiency in promoting SR-BI-dependent cholesterol efflux compared to Apo A-I” value in [9] (per mole basis) is “less efficient”; in [9] (per weight basis), “more efficient”. The “MCP-1 mRNA level” value in [10] (FIG. 7) is on record as “reduced; also recorded: inhibit”. For the same substance, the “spontaneous association with DMPC (co-elution with phospholipid)” value (“spontaneous association with DMPC” below) in data set [11] is reported as “associated spontaneously”.
In the case of “Ac-D-W-F-K-A-F-Y-D-K-V-A-E-K-F-K-E-A-F-NH2 [L-4F] (Ac-DWFKAFYDKVAEKFKEAF-NH2)”, in [1], the “effect on atherosclerotic lesions” value is on record as “no effect”. Further, the “LDL and phospholipid oxidation” value in [2] (mechanisms independent of HDL-mediated processes) is on record as “inhibits”. Besides, in [2], the LDL oxidation entry is “block”. In addition, the “LDL-induced monocyte chemotactic activity” value in data set [3] is given as “block”. Further, the “efficiency in promoting ABCA1-dependent cholesterol efflux compared to Apo A-I” value in data set [4] (per mole basis) was “less efficient”; in [4] (per weight basis), “more efficient”. For the same substance, the “lipid peroxidation (TBARS) caused by endothelial cells” value in data set [7] is recorded as “significantly decreased; also recorded: inhibit”. The “lipid peroxidation (TBARS) caused by copper sulfate” value in [8] is “significantly decreased; also recorded: inhibit”. For the same substance, the “efficiency in promoting SR-BI-dependent cholesterol efflux compared to Apo A-I” value is recorded as “less efficient” in data set [9] (per mole basis) and “more efficient” in data set [9] (per weight basis). Moreover, in data set [10] (FIG. 7), the “MCP-1 mRNA level” value is reported as “reduced; also recorded: inhibit”. In [11], the “spontaneous association with DMPC” value is “associated spontaneously”.
As for “Ac-F-A-E-K-F-K-E-A-V-K-D-Y-F-A-K-F-W-D-NH2 (Ac-[dF][dA][dE][dK][dF][dK][dE][dA][dV][dK][dD][dY][dF][dA][dK][dF][dW][dD]-NH2; SMILES CC(=O)N[C@H](Cc1ccccc1)C(=O)N[C@H](C)C(=O)N[C@H](CCC(=O)O)C(=O)N[C@H](CCCCN)C(=O)N[C@H](Cc1ccccc1)C(=O)N[C@H](CCCCN)C(=O)N[C@H](CCC(=O)O)C(=O)N[C@H](C)C(=O)N[C@@H](C(=O)N[C@H](CCCCN)C(=O)N[C@H](CC(=O)O)C(=O)N[C@H](Cc1ccc(O)cc1)C(=O)N[C@H](Cc1ccccc1)C(=O)N[C@H](C)C(=O)N[C@H](CCCCN)C(=O)N[C@H](Cc1ccccc1)C(=O)N[C@H](Cc1c[nH]c2ccccc12)C(=O)N[C@H](CC(=O)O)C(N)=O)C(C)C) [Rev-D4F]”, in data set [1], the “decrease in lesion area as compared to water control” value is 46%. The “efficiency in promoting ABCA1-dependent cholesterol efflux compared to Apo A-I” value is given as “less efficient” in data set [4] (per mole basis) and “more efficient” in [4] (per weight basis). For the same substance, the “inhibition in lipid peroxidation compared with D-4F” value in data set [7] (endothelial cells as oxidant) and in data set [8] was “significantly greater” each time. Also, the entries for the “lipid peroxidation (TBARS) caused by endothelial cells” value in data set [7] and in data set [7] (listed as Rev D-4-F) were “significantly decreased” and “inhibit”, respectively. For the same substance, the “lipid peroxidation (TBARS) caused by copper sulfate” value in data set [8] is on record as “significantly decreased”; in data set [8] (listed as Rev D-4-F), “inhibit”. Also, the results for the “efficiency in promoting SR-BI-dependent cholesterol efflux compared to Apo A-I” value in data set [9] (per mole basis) and in [9] (per weight basis) were “less efficient” and “more efficient”, respectively. In addition, the “MCP-1 mRNA level” value is recorded as “reduced” in [10] (FIG. 7) and “inhibit” in data set [10] (FIG. 7, listed as Rev D-4-F). In [11], the “spontaneous association with DMPC” value is given as “associated spontaneously”.
Regarding “Apo A-I: the major HDL apoprotein; intact/wild type protein used as comparator”, the “spontaneous association with DMPC” value in data set [11] is recorded as “only certain portions”.
